# In patent US20240158370A1, “CK1 alpha AND DUAL CK1 alpha / GSPT1 DEGRADING COMPOUNDS” (Innovo Therapeutics, Inc., priority 2022, published 2024):
# Columns and labels:
# Type in all cases: cell-based
# CK1α = biological target: T1, CK1α (Homo sapiens, UniProt P48729+Q96SW2); test: HiBiT degradation assay, CK1α, Procedure A
# T1 construct: CSNK1A1-HiBit KI HEK293(LgBit) Cells; host or cells: HEK293(LgBit) knock-in cells
# Method in brief: (§1)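 Luminescence from HiBiT lytic detection reports remaining tagged protein after cells sit six hours at 37° C with compound across ten concentrations (10 μM down to 0.005 μM, 0.1% DMSO). A 4-parameter curve fit gives DC50 and Ymin.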
# Z-138 cells = test: Z-138 Proliferation Assay (Cell Titer-Glo); conditions: 72 hours; for Ymin (%): % remaining (percent of DMSO control); for EC50: Homo sapiens, Cell Titer-Glo, 4-parameter curve fit
# Protocol: Z-138 Proliferation Assay
# Z-138 cells were cultured in IMDM Medium supplemented with 10% heat in-activated fetal bovine serum and 1% Penicillin-Streptomycin.
# 10 mM stocks of compound were made from fresh powder. DMSO was added to solid compound so that the final concentration was 10 mM. Compounds were vortexed and allowed to sit for 5 minutes to ensure complete solubility. Solvated compound was aliquoted into 1 ml Eppendorf tubes and stored in a −20° C. freezer.
# Z-138 cells were maintained in culture using standard cell culturing techniques.
# Cells were maintained at a density of 0.8×10^6 cells/ml.
# Re-constitute cell titer-glo reagent according to manufacturer's protocol.
# Z-138 cells were removed from culture and cell viability and density were determined using a CellDrop™ Automated Cell Counter with Tryphan blue stain according to manufacturer's protocols. Cells were centrifuged and resuspended using fresh media to a cell density of 0.1×10^6 cells/ml. […] 40 μl of cell suspension was added to the wells of a 384 well tissue culture plate (4,000 cells/well final). Upon completing the addition of the cells to the plate, the plates were centrifuged for 30 seconds at 300 rpms to help the cells settle and to bring air bubbles to the top of the wells. Air bubbles were popped using a pipette tip.
# 10-point dose response curves were performed using a D300e Digital Dispenser. The highest concentration of compound used in the assay was 10,000 nM. 1:2 dilutions were performed over a 10-point range with the final DMSO concentration being 0.1%. The cells were cultured for 72 hours in the presence of compound.
# After 72 hours, the cell plates were removed from the incubator and allowed to equilibrate to room temperature (about 15 minutes). 20 μl of cell titer-glo reagent was added to each well of the 384 well plate. Incubated the plate for 30 minutes in the dark. After 30 minutes, ensured that there were no air bubbles in the plate (popped bubbles with pipette tip if necessary) and analyzed plate using a luminometer.
# EC50 curves were generated using Prism Graph Pad. In brief, POCs (percent of control, compound/DMSO control×100) were plotted against the compound concentrations (log scale). EC50 curves were generated using a 4-parameter curve fit.
# GSPT1 = GSPT1 (Homo sapiens, UniProt P15170+Q96SW2); test: HiBiT degradation assay, GSPT1, Procedure A; design: HiBit-GSPT1 KI HEK293(LgBit) Cells; host or cells: HEK293(LgBit) knock-in cells; conditions: six hours incubation
# Method in brief: as §1
# T1 sequence (P48729 whole entry): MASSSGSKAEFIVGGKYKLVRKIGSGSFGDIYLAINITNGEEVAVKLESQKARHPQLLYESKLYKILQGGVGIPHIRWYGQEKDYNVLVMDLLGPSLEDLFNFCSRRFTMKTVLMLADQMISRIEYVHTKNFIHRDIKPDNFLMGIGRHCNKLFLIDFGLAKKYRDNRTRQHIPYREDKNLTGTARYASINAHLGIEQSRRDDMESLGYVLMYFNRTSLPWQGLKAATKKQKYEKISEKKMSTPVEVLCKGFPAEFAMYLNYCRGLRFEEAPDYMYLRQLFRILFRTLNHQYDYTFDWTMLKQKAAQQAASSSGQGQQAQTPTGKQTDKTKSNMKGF
# T1 sequence (Q96SW2 whole entry): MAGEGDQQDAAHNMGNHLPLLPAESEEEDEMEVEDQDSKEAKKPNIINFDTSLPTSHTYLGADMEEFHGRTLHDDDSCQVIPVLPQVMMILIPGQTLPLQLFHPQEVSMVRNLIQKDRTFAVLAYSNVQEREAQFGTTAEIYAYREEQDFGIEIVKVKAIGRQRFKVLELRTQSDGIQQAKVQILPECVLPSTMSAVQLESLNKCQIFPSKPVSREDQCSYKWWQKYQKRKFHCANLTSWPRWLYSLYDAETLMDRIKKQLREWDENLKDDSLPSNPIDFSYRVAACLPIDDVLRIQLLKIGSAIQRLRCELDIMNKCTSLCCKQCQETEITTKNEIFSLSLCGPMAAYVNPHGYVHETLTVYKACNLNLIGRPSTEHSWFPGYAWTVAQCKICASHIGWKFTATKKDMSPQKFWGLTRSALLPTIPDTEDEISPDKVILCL
# T1 sequence (Q16531 whole entry partner): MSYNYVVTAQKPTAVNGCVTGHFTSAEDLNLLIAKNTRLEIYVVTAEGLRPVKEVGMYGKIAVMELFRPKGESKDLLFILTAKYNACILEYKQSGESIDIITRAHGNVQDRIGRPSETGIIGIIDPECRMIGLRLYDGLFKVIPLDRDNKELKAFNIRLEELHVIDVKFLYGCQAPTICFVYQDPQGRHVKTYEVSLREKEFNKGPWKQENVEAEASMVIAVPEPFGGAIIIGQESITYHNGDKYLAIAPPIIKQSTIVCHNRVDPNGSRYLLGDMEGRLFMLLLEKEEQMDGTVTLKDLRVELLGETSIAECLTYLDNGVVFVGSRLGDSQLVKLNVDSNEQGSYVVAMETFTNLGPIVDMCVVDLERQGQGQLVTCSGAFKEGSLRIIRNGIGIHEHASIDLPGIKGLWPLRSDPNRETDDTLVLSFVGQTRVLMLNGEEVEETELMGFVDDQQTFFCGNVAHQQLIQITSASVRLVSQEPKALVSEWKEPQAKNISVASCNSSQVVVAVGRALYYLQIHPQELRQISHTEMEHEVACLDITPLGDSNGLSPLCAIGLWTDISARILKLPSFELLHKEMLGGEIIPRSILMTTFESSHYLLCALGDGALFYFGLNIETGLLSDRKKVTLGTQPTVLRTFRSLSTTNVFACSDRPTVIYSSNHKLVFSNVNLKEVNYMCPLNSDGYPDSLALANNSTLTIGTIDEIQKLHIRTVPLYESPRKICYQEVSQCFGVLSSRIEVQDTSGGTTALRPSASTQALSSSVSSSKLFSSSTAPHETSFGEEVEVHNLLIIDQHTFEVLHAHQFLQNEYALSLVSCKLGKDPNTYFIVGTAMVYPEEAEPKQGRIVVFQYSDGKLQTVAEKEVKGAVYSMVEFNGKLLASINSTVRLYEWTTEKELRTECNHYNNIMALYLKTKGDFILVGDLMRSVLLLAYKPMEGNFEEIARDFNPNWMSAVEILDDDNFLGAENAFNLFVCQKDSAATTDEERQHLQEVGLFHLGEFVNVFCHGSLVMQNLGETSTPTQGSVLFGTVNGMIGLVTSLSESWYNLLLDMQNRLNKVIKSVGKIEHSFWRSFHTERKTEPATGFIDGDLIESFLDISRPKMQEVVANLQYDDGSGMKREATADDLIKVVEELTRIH
# Chain of GSPT1 (P15170 whole entry): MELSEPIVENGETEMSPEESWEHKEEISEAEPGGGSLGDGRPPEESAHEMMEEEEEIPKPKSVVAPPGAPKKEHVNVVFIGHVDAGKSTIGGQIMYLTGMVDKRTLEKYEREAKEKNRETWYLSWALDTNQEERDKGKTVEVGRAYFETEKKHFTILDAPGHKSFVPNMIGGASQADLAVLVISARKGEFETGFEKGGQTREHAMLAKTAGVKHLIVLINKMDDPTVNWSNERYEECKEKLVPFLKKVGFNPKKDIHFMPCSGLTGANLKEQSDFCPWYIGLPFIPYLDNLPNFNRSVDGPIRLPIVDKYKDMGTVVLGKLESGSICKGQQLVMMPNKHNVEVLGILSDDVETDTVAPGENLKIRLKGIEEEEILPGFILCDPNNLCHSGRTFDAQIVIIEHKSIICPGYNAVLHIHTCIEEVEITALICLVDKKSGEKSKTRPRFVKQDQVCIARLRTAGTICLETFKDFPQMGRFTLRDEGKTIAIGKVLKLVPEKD
# Chain of GSPT1 (Q96SW2 whole entry): as the sequence (Q96SW2 whole entry) above
# Chain of GSPT1 (Q16531 whole entry partner): as the sequence (Q16531 whole entry partner) above
SMILES,CK1α Ymin (CK1α; six hours incubation),DC50 (CK1α; six hours incubation) [nM],Ymin (%) (Z-138 cells),EC50 (Z-138 cells) [nM],DC50 (GSPT1) [nM],GSPT1 Ymin (GSPT1),CK1α Ymin (CK1α; six hours),DC50 (CK1α; six hours) [nM]
"O=C1CCC(N2Cc3cc(-c4nccn4-c4ccccc4)ccc3C2=O)C(=O)N1 (stereo not shown) [Example 7, 3-(1-Oxo-5-(1-phenyl-1H-imidazol-2-yl)isoindolin-2-yl)piperidine-2,6-dione]",C (C = 0-10% remaining),< 25,D (0-10% remaining),< 10,< 25,E (E = >25-75% remaining),,
"Cn1c(C2CC2)nc(-c2ccc3c(c2)CN(C2CCC(=O)NC2=O)C3=O)c1-c1ccccc1 (stereo not shown) [Example 12, 3-(5-(2-cyclopropyl-1-methyl-5-phenyl-1H-imidazol-4-yl)-1-oxoisoindolin-2-yl)piperidine-2,6-dione]",C (C = 0-10% remaining),< 25,D (0-10% remaining),< 10,≥ 25,E (E = >25-75% remaining),,
"Cc1nc(-c2ccc3c(c2)CN(C2CCC(=O)NC2=O)C3=O)c(-c2ccccc2)n1C (stereo not shown) [Example 14, 3-(5-(1,2-Dimethyl-5-phenyl-1H-imidazol-4-yl)-1-oxoisoindolin-2-yl)piperidine-2,6-dione]",C (C = 0-10% remaining),< 25,D (0-10% remaining),< 10,≥ 25,E (E = >25-75% remaining),,
"Cc1c(-c2ccccc2)c(-c2ccc3c(c2)CN(C2CCC(=O)NC2=O)C3=O)nn1C (stereo not shown) [Example 17, 3-(5-(1,5-Dimethyl-4-phenyl-1H-pyrazol-3-yl)-1-oxoisoindolin-2-yl)piperidine-2,6-dione]",C (C = 0-10% remaining),< 25,D (0-10% remaining),< 10,≥ 25,E (E = >25-75% remaining),,
"Cc1nc(-c2ccc3c(c2)CN(C2CCC(=O)NC2=O)C3=O)c(-c2ccccc2)o1 (stereo not shown) [Example 19, 3-(5-(2-Methyl-5-phenyloxazol-4-yl)-1-oxoisoindolin-2-yl)piperidine-2,6-dione]",C (C = 0-10% remaining),< 25,D (0-10% remaining),< 10,≥ 25,E (E = >25-75% remaining),,
"Cn1cc(-c2ccc3c(c2)CN(C2CCC(=O)NC2=O)C3=O)nc1-c1ccccc1 (stereo not shown) [Example 25, 3-(5-(1-Methyl-2-phenyl-1H-imidazol-4-yl)-1-oxoisoindolin-2-yl)piperidine-2,6-dione]",C (C = 0-10% remaining),< 25,D (0-10% remaining),< 10,≥ 25,F (F = >75-100% remaining),,
"O=C1CCC(N2Cc3cc(-c4cn(-c5ccccc5)cn4)ccc3C2=O)C(=O)N1 (stereo not shown) [Example 32, 3-(1-Oxo-5-(1-phenyl-1H-imidazol-4-yl)isoindolin-2-yl)piperidine-2,6-dione]",D (D = >10- 25% remaining),< 25,D (0-10% remaining),< 10,< 25,E (E = >25-75% remaining),,
"O=C1CCC(N2Cc3cc(-c4ccn(-c5ccccc5)n4)ccc3C2=O)C(=O)N1 (stereo not shown) [Example 34, 3-(1-Oxo-5-(1-phenyl-1H-pyrazol-3-yl)isoindolin-2-yl)piperidine-2,6-dione]",D (D = >10- 25% remaining),< 25,E (>10-25% remaining),10 to 100,≥ 25,F (F = >75-100% remaining),,
"Cn1nc(-c2ccc3c(c2)CN(C2CCC(=O)NC2=O)C3=O)cc1-c1ccccc1 (stereo not shown) [Example 36, 3-(5-(1-Methyl-5-phenyl-1H-pyrazol-3-yl)-1-oxoisoindolin-2-yl) piperidine-2,6-dione]",D (D = >10- 25% remaining),< 25,E (>10-25% remaining),10 to 100,≥ 25,F (F = >75-100% remaining),,
"O=C1CCC(N2Cc3cc(-c4coc(-c5ccccc5)n4)ccc3C2=O)C(=O)N1 (stereo not shown) [Example 37, 3-(1-Oxo-5-(2-phenyloxazol-4-yl)isoindolin-2-yl)piperidine-2,6-dione]",D (D = >10- 25% remaining),< 25,F (>25-50% remaining),10 to 100,≥ 25,F (F = >75-100% remaining),,
"O=C1CCC(N2Cc3cc(-c4cnoc4-c4ccccc4)ccc3C2=O)C(=O)N1 (stereo not shown) [Example 39, 3-(1-Oxo-5-(5-phenylisoxazol-4-yl)isoindolin-2-yl)piperidine-2,6-dione]",E (E = >25-75% remaining),< 25,D (0-10% remaining),100 to 500,≥ 25,F (F = >75-100% remaining),,
"Cn1c(-c2ccccc2)cnc1-c1ccc2c(c1)CN(C1CCC(=O)NC1=O)C2=O (stereo not shown) [Example 40, 3-(5-(1-Methyl-5-phenyl-1H-imidazol-2-yl)-1-oxoisoindolin-2-yl)piperidine-2,6-dione]",D (D = >10- 25% remaining),< 25,D (0-10% remaining),< 10,< 25,D (D = >10- 25% remaining),,
"Cn1cc(-c2ccccc2)nc1-c1ccc2c(c1)CN(C1CCC(=O)NC1=O)C2=O (stereo not shown) [Example 41, 3-(5-(1-Methyl-4-phenyl-1H-imidazol-2-yl)-1-oxoisoindolin-2-yl)piperidine-2,6-dione]",D (D = >10- 25% remaining),< 25,D (0-10% remaining),10 to 100,≥ 25,F (F = >75-100% remaining),,
"O=C1CCC(N2Cc3cc(-c4cc(-c5ccccc5)no4)ccc3C2=O)C(=O)N1 (stereo not shown) [Example 43, 3-(1-Oxo-5-(3-phenylisoxazol-5-yl)isoindolin-2-yl)piperidine-2,6-dione]",D (D = >10- 25% remaining),< 25,F (>25-50% remaining),100 to 500,≥ 25,F (F = >75-100% remaining),,
"Cn1cc(-c2c(-c3ccc4c(c3)CN(C3CCC(=O)NC3=O)C4=O)nc(C3CC3)n2C)cn1 (stereo not shown) [Example 46, 3-(5-(2-Cyclopropyl-1-methyl-5-(1-methyl-1H-pyrazol-4-yl)-1H-imidazol-4-yl)-1-oxoisoindolin-2-yl)piperidine-2,6-dione]",C (C = 0-10% remaining),< 25,D (0-10% remaining),< 10,≥ 25,F (F = >75-100% remaining),,
"O=C1CCC(N2Cc3cc(-c4nccn4C4CCCCC4)ccc3C2=O)C(=O)N1 (stereo not shown) [Example 48, 3-(5-(1-Cyclohexyl-1H-imidazol-2-yl)-1-oxoisoindolin-2-yl)piperidine-2,6-dione]",C (C = 0-10% remaining),< 25,D (0-10% remaining),< 10,< 25,D (D = >10- 25% remaining),,
"CCn1nc(-c2ccccc2)c(-c2ccc3c(c2)CN(C2CCC(=O)NC2=O)C3=O)n1 (stereo not shown) [Example 51, 3-(5-(2-Ethyl-5-phenyl-2H-1,2,3-triazol-4-yl)-1-oxoisoindolin-2-yl)piperidine-2,6-dione]",C (C = 0-10% remaining),< 25,D (0-10% remaining),10 to 100,≥ 25,F (F = >75-100% remaining),,
"Cn1nc(-c2ccc3c(c2)CN(C2CCC(=O)NC2=O)C3=O)cc1-c1ccc(F)cc1 (stereo not shown) [Example 488, 3-(5-(5-(4-fluorophenyl)-1-methyl-1H-pyrazol-3-yl)-1-oxoisoindolin-2-yl)piperidine-2,6-dione]",,,E (>10-25% remaining),10 to 100,,,D (D = >10- 25% remaining),< 25
